# Test results as given in US8273724B2, “Melanoma antigens and their use in diagnostic and therapeutic methods” (The United States of America, as represented by the …, priority 1994, dated 2012).
# Where two headings read alike, the source gives them in different places. Where a SMILES comes first, the peptide text is derived from it.
# Key:
# HLA-A2.1 = HLA-A2.1 (Homo sapiens, UniProt P04439, D140Y/D185E/D98H/E176V/E277Q/G131W/G231S/I119V/I121R/I166T/I218V/L300P/L318F/N151K/N90K/P208A/P217A/Q86G/Q94H/R138H/R169H/T345S); experiment: HLA-A2.1 binding assay of modified peptides, inhibition of radiolabeled Hbc 18-27 (Example 5); conditions: modified gp100 G9-154 peptides; read-out: Binding affinity to HLA-A2.1
# [1] = test system: T2 cell lines preincubated with peptide; experiment: Recognition of modified peptides by natural epitope (M9-2, G9-154, G9-209, G9-280) reactive T-cells, 51Cr release on peptide-pulsed T2 cells (Example 5); assay type: cell-based, human
# Protocol: Assessment of antigen recognition by CTL. ^51Cr release cytotoxic assays were performed to detect the recognition of peptide and melanoma cells by CTL. To analyze peptide recognition, T2 cell lines were preincubated for 2 h at 37° C. with 1 ug/ml peptide, washed and used as target cells in a ^51Cr release cytotoxic assay. The melanoma lines 624mel was established in our laboratory (See Example 1).
# In order to make more immunogenic peptides for induction of anti-melanoma T-cells than natural melanoma epitopes, a variety of peptides in which at least 1 amino acid was changed based on consensus motifs in peptides binding to a specific MHC Class I allele Falk, et al. (1991) Nature 351:290; Kubo et al. (1994) J. Immunol 152:3913; Parker, K. et al. (1992) Journal of Immunology 149:3580; Ruppert, J. et al. (1993) Cell 74:929-937) (Tables 14, 15, 16, and 17). […] By changing amino acid at the 1st, 2nd, 3rd or 9th positions which are important for HLA-A2 binding to the peptide, but less important for recognition by T-cell receptors, artificial peptides which can bind to HLA-A2.1 with higher affinity and still be recognized by natural epitope specific T-cells may be generated.
# HLA-A2.1+ T2 cells = conditions: for % specific lysis at E:T = 40:1: peptide 1 ug/ml
SMILES,IC50 (HLA-A2.1) [nM],Recognition by G9-154 reactive T-cell [1],also measured
CC(C)[C@H](NC(=O)[C@H](CCC(N)=O)NC(=O)[C@H](Cc1c[nH]c2ccccc12)NC(=O)[C@H](Cc1ccc(O)cc1)NC(=O)[C@H](CCC(N)=O)NC(=O)CNC(=O)[C@H](Cc1c[nH]c2ccccc12)NC(=O)[C@@H](NC(=O)[C@H](C)N)[C@@H](C)O)C(=O)O [G9-154-1A] (H-ATWGQYWQV-OH; N-terminus and C-terminus assumed),5.2,"+ (+, recognized)",
CC(C)C[C@H](NC(=O)[C@@H](N)Cc1ccccc1)C(=O)N[C@@H](Cc1c[nH]c2ccccc12)C(=O)NCC(=O)N[C@@H](CCC(N)=O)C(=O)N[C@@H](Cc1ccc(O)cc1)C(=O)N[C@@H](Cc1c[nH]c2ccccc12)C(=O)N[C@@H](CCC(N)=O)C(=O)N[C@H](C(=O)O)C(C)C [G9-154-1F2L] (H-FLWGQYWQV-OH; N-terminus and C-terminus assumed),2.6,−,
CC(C)[C@H](NC(=O)[C@H](CCC(N)=O)NC(=O)[C@H](Cc1c[nH]c2ccccc12)NC(=O)[C@H](Cc1ccc(O)cc1)NC(=O)[C@H](CCC(N)=O)NC(=O)CNC(=O)[C@H](Cc1c[nH]c2ccccc12)NC(=O)[C@@H](NC(=O)[C@@H](N)Cc1ccccc1)[C@@H](C)O)C(=O)O [G9-154-1F] (H-FTWGQYWQV-OH; N-terminus and C-terminus assumed),1.6,−,
CC(C)C[C@H](NC(=O)[C@@H](N)CC(C)C)C(=O)N[C@@H](Cc1c[nH]c2ccccc12)C(=O)NCC(=O)N[C@@H](CCC(N)=O)C(=O)N[C@@H](Cc1ccc(O)cc1)C(=O)N[C@@H](Cc1c[nH]c2ccccc12)C(=O)N[C@@H](CCC(N)=O)C(=O)N[C@H](C(=O)O)C(C)C [G9-154-1L2L] (H-LLWGQYWQV-OH; N-terminus and C-terminus assumed),1.6,"+ (+, recognized)",
CC(C)C[C@H](N)C(=O)N[C@H](C(=O)N[C@@H](Cc1c[nH]c2ccccc12)C(=O)NCC(=O)N[C@@H](CCC(N)=O)C(=O)N[C@@H](Cc1ccc(O)cc1)C(=O)N[C@@H](Cc1c[nH]c2ccccc12)C(=O)N[C@@H](CCC(N)=O)C(=O)N[C@H](C(=O)O)C(C)C)[C@@H](C)O [G9-154-1L] (H-LTWGQYWQV-OH; N-terminus and C-terminus assumed),3.4,"+ (+, recognized)",
CC(C)C[C@H](NC(=O)[C@@H](N)Cc1c[nH]c2ccccc12)C(=O)N[C@@H](Cc1c[nH]c2ccccc12)C(=O)NCC(=O)N[C@@H](CCC(N)=O)C(=O)N[C@@H](Cc1ccc(O)cc1)C(=O)N[C@@H](Cc1c[nH]c2ccccc12)C(=O)N[C@@H](CCC(N)=O)C(=O)N[C@H](C(=O)O)C(C)C [G9-154-1W2L] (H-WLWGQYWQV-OH; N-terminus and C-terminus assumed),2.8,−,
CC(C)[C@H](NC(=O)[C@H](CCC(N)=O)NC(=O)[C@H](Cc1c[nH]c2ccccc12)NC(=O)[C@H](Cc1ccc(O)cc1)NC(=O)[C@H](CCC(N)=O)NC(=O)CNC(=O)[C@H](Cc1c[nH]c2ccccc12)NC(=O)[C@@H](NC(=O)[C@@H](N)Cc1c[nH]c2ccccc12)[C@@H](C)O)C(=O)O [G9-154-1W] (H-WTWGQYWQV-OH; N-terminus and C-terminus assumed),60,−,
CC(C)C[C@H](NC(=O)[C@@H](N)Cc1ccc(O)cc1)C(=O)N[C@@H](Cc1c[nH]c2ccccc12)C(=O)NCC(=O)N[C@@H](CCC(N)=O)C(=O)N[C@@H](Cc1ccc(O)cc1)C(=O)N[C@@H](Cc1c[nH]c2ccccc12)C(=O)N[C@@H](CCC(N)=O)C(=O)N[C@H](C(=O)O)C(C)C [G9-154-1Y2L] (H-YLWGQYWQV-OH; N-terminus and C-terminus assumed),1.7,−,
CC(C)[C@H](NC(=O)[C@H](CCC(N)=O)NC(=O)[C@H](Cc1c[nH]c2ccccc12)NC(=O)[C@H](Cc1ccc(O)cc1)NC(=O)[C@H](CCC(N)=O)NC(=O)CNC(=O)[C@H](Cc1c[nH]c2ccccc12)NC(=O)[C@@H](NC(=O)[C@@H](N)Cc1ccc(O)cc1)[C@@H](C)O)C(=O)O [G9-154-1Y],2.5,−,
CC(C)C[C@H](NC(=O)[C@@H](N)CCCCN)C(=O)N[C@@H](Cc1c[nH]c2ccccc12)C(=O)NCC(=O)N[C@@H](CCC(N)=O)C(=O)N[C@@H](Cc1ccc(O)cc1)C(=O)N[C@@H](Cc1c[nH]c2ccccc12)C(=O)N[C@@H](CCC(N)=O)C(=O)N[C@H](C(=O)O)C(C)C [G9-154-2L] (H-KLWGQYWQV-OH; N-terminus and C-terminus assumed),2,"+ (+, recognized)",
CSCC[C@H](NC(=O)[C@@H](N)CCCCN)C(=O)N[C@@H](Cc1c[nH]c2ccccc12)C(=O)NCC(=O)N[C@@H](CCC(N)=O)C(=O)N[C@@H](Cc1ccc(O)cc1)C(=O)N[C@@H](Cc1c[nH]c2ccccc12)C(=O)N[C@@H](CCC(N)=O)C(=O)N[C@H](C(=O)O)C(C)C [G9-154-2M] (H-KMWGQYWQV-OH; N-terminus and C-terminus assumed),6.5,"+ (+, recognized)",
CC(C)[C@H](NC(=O)[C@H](CCC(N)=O)NC(=O)[C@H](Cc1c[nH]c2ccccc12)NC(=O)[C@H](Cc1ccc(O)cc1)NC(=O)[C@H](CCC(N)=O)NC(=O)CNC(=O)[C@H](Cc1ccccc1)NC(=O)[C@@H](NC(=O)[C@@H](N)CCCCN)[C@@H](C)O)C(=O)O [G9-154-3F] (H-KTFGQYWQV-OH; N-terminus and C-terminus assumed),21,"+ (+, recognized)",
CC(C)[C@H](NC(=O)[C@H](CCC(N)=O)NC(=O)[C@H](Cc1c[nH]c2ccccc12)NC(=O)[C@H](Cc1ccc(O)cc1)NC(=O)[C@H](CCC(N)=O)NC(=O)CNC(=O)[C@H](Cc1ccc(O)cc1)NC(=O)[C@@H](NC(=O)[C@@H](N)CCCCN)[C@@H](C)O)C(=O)O [G9-154-3Y] (H-KTYGQYWQV-OH; N-terminus and C-terminus assumed),30,"+ (+, recognized)",
CC[C@H](C)[C@H](NC(=O)[C@@H](N)[C@@H](C)O)C(=O)N[C@H](C(=O)N[C@@H](CC(=O)O)C(=O)N[C@@H](CCC(N)=O)C(=O)N[C@H](C(=O)N1CCC[C@H]1C(=O)N[C@@H](Cc1ccccc1)C(=O)N[C@@H](CO)C(=O)N[C@H](C(=O)O)C(C)C)C(C)C)[C@@H](C)O [G10208],,,"% specific lysis at E:T = 40:1 (HLA-A2.1+ T2 cells; Exp. 1, TIL 620-1): 42%; % specific lysis at E:T = 40:1 (HLA-A2.1+ T2 cells; Exp. 1, TIL 620-2): 36%; % specific lysis at E:T = 40:1 (HLA-A2.1+ T2 cells; Exp. 1, TIL 660-1): 7%; % specific lysis at E:T = 40:1 (HLA-A2.1+ T2 cells; Exp. 1, TIL 1143): 4%; % specific lysis at E:T = 40:1 (HLA-A2.1+ T2 cells; Exp. 1, TIL 1200): 2%; % specific lysis at E:T = 40:1 (HLA-A2.1+ T2 cells; Exp. 1, TIL 1235): 3%; % specific lysis at E:T = 40:1 (HLA-A2.1+ T2 cells; Exp. 2, TIL 620-1): 35%; % specific lysis at E:T = 40:1 (HLA-A2.1+ T2 cells; Exp. 2, TIL 620-2): 80%; % specific lysis at E:T = 40:1 (HLA-A2.1+ T2 cells; Exp. 2, TIL 660-2): 7%; % specific lysis at E:T = 40:1 (HLA-A2.1+ T2 cells; Exp. 2, TIL 1143): 10%; % specific lysis at E:T = 40:1 (HLA-A2.1+ T2 cells; Exp. 2, TIL 1200): 1%; % specific lysis at E:T = 40:1 (HLA-A2.1+ T2 cells; Exp. 2, TIL 1235): 5%; TIL that recognize the peptide (HLA-A2.1+ T2 cells; cytotoxicity assays, T2 preincubated with peptide): recognized only by TIL620"
CC[C@H](C)[C@H](NC(=O)CNC(=O)[C@@H](NC(=O)[C@H](Cc1ccccc1)NC(=O)[C@H](C)NC(=O)[C@H](C)N)[C@@H](C)CC)C(=O)N[C@@H](CC(C)C)C(=O)N[C@H](C(=O)N[C@H](C(=O)O)C(C)C)[C@@H](C)O [M9-2-3F],,,Recognition by M9-2 reactive T-cell [1]: −
CC[C@H](C)[C@H](NC(=O)CNC(=O)[C@@H](NC(=O)[C@H](Cc1c[nH]c2ccccc12)NC(=O)[C@H](C)NC(=O)[C@H](C)N)[C@@H](C)CC)C(=O)N[C@@H](CC(C)C)C(=O)N[C@H](C(=O)N[C@H](C(=O)O)C(C)C)[C@@H](C)O [M9-2-3W],,,Recognition by M9-2 reactive T-cell [1]: −
